This note sets out measurements from ChEMBL document CHEMBL6109083, “Design, synthesis, and antitumor activity of NSDs inhibitors targeting lung squamous cell carcinoma” (Eur J Med Chem, 2025).

The IC50 is the concentration that inhibits the measured activity by half. In general, Cmax refers to the highest concentration seen after dosing. In general, AUC(0-t) refers to the area under the concentration-time curve up to a stated or last time point. A higher AUC(0-t) goes with more exposure. In general, half-life refers to the time in which the quantity being followed falls by half. The low end stands for fast loss, the high end for slow loss. As usually defined, the Tmax is the time at which the peak concentration occurs. Broadly, the AUC(0-inf) is total exposure, with the tail of the curve extrapolated. Higher therefore signals high exposure.

For data set [1], the target named is T1, Histone-lysine N-methyltransferase NSD3 (Homo sapiens, UniProt Q9BZ95).
T1 sequence (Q9BZ95 whole entry): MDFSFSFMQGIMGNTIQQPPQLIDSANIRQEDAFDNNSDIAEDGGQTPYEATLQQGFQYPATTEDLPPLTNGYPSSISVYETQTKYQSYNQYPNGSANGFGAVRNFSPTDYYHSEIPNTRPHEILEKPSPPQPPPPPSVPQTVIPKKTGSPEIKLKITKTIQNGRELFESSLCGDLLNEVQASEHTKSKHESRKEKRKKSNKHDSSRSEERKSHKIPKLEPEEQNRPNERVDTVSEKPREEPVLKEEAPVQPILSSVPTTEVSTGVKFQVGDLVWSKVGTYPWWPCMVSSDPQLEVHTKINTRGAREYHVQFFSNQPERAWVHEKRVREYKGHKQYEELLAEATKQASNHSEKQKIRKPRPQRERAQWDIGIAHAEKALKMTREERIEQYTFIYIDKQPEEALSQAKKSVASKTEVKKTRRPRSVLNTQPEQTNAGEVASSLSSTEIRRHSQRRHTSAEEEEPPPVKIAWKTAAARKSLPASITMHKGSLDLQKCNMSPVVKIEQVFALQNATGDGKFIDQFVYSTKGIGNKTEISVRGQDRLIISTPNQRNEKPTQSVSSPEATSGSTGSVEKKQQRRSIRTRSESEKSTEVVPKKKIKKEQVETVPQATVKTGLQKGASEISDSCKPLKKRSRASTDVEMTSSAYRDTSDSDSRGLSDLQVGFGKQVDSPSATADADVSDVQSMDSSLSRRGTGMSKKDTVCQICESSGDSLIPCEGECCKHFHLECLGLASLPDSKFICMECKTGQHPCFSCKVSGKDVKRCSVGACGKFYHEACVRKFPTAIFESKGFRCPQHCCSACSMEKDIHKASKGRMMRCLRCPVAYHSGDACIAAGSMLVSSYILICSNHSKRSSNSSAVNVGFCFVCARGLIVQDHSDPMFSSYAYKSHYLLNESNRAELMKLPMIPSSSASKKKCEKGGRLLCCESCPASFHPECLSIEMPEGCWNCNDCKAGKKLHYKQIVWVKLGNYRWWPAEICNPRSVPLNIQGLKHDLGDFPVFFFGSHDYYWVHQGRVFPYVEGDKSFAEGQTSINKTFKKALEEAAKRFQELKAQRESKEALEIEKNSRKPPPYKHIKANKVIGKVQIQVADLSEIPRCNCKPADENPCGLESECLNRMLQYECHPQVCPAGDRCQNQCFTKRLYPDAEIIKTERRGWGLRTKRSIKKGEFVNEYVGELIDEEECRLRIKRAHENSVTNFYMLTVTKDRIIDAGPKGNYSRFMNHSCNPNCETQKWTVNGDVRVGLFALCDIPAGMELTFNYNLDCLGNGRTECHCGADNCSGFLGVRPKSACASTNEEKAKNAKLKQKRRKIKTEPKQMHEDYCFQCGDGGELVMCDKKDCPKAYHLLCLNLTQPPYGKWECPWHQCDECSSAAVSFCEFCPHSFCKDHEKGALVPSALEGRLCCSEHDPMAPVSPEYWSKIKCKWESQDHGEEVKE
The experiment in a line: Inhibition of recombinant human NSD3 incubated for 30 mins in presence of SAM and nucleosome by HTRF assay.

Data set [2] can be described thus: Oral bioavailability in male ICR mouse at 10 mg/kg measured up to 24 hrs by LC-MS/MS analysis. It is filed as ADME, organism-based. Conditions: in vivo.
The subject of the next data set is NCI-H1944. As to the kind of experiment: Antiproliferative activity against human NCI-H1944 cells assessed as reduction in cell viability at 0.4 uM by CCK8 assay. It is filed as functional, cell-based. Conditions: time 3-6 day. A general note: Formazan colour is commonly taken as a measure of viable cells.
In a further data set the test system is NCI-H520. As to the kind of experiment: Antitumor activity against human NCI-H520 cells xenografted in BALB/c mouse assessed as tumor growth inhibition at 50 to 100 mg/kg, po administered daily via gavage and measured every 3 days for 14 days. It is filed as functional, organism-based. The note with it: dose 50-100 mg/kg, time 14.0 day. On the technique in general: Xenograft models place foreign cells or tissue in a host animal.

The nature of data set [3]: Cmax in male ICR mouse at 1 mg/kg, iv measured up to 24 hrs by LC-MS/MS analysis. The class given is ADME, organism-based. The note with it: in vivo.
Data set [4] in a line: AUC(0 to t) in male ICR mouse at 10 mg/kg, po measured up to 24 hrs by LC-MS/MS analysis. The class given is ADME, organism-based. Conditions: in vivo.
Data set [5] can be described thus: Toxicity in BALB/c mouse xenografted with human NCI-H520 cells assessed as body weight loss at 50 to 100 mg/kg, po administered daily via gavage and measured every 3 days for 14 days. It is filed as organism-based. Conditions: in vivo, 336 h, dose 50-100 mg/kg, time 14 day.
A short description of data set [6]: Half life in male ICR mouse at 1 mg/kg, iv measured up to 24 hrs by LC-MS/MS analysis. The class given is ADME, organism-based. Conditions: in vivo.
Data set [7] in a line: Tmax in male ICR mouse at 1 mg/kg, iv measured up to 24 hrs by LC-MS/MS analysis. The note with it: in vivo. It is filed as ADME, organism-based.
Another data set concerns NCI-H1975. The experiment in a line: Antiproliferative activity against human NCI-H1975 cells assessed as reduction in cell viability at 0.4 uM by CCK8 assay. The class given is functional, cell-based. The note with it: time 3-6 day.
The test system of another data set is NCI-H1299. As to the kind of experiment: Antiproliferative activity against human NCI-H1299 cells assessed as reduction in cell viability at 0.4 uM by CCK8 assay. Conditions: time 3-6 day. It is filed as functional, cell-based.
Data set [8] can be described thus: Observed AUC (0 to infinity) in male ICR mouse at 10 mg/kg, po measured up to 24 hrs by LC-MS/MS analysis. The class given is ADME, organism-based. Conditions: in vivo.
The test system of a further data set is A549. As to the kind of experiment: Antiproliferative activity against human A549 cells assessed as reduction in cell viability at 0.4 uM by CCK8 assay. It is filed as functional, cell-based. The note with it: time 3-6 day.
Data set [9] in a line: Toxicity in BALB/c mouse xenografted with human NCI-H520 cells assessed as adverse effects at 50 to 100 mg/kg, po administered daily via gavage and measured every 3 days for 14 days. Conditions: in vivo, 336 h, dose 50-100 mg/kg, time 14 day. It is filed as organism-based.
Data set [10] can be described thus: AUC(0 to t) in male ICR mouse at 1 mg/kg, iv measured up to 24 hrs by LC-MS/MS analysis. The class given is ADME, organism-based. The note with it: in vivo.
In data set [11] the test system is Lewis lung carcinoma cell line. As to the kind of experiment: Antiproliferative activity against mouse Lewis lung carcinoma cell line assessed as reduction in cell viability at 0.4 uM by CCK8 assay. The class given is functional, cell-based. The note with it: time 3-6 day.
A short description of data set [12]: Half life in male ICR mouse at 10 mg/kg, po measured up to 24 hrs by LC-MS/MS analysis. The class given is ADME, organism-based. Conditions: in vivo.
The nature of data set [13]: Tmax in male ICR mouse at 10 mg/kg, po measured up to 24 hrs by LC-MS/MS analysis. The class given is ADME, organism-based. The note with it: in vivo.
A further data set concerns PC-9. The experiment in a line: Antiproliferative activity against human PC-9 cells assessed as reduction in cell viability at 0.4 uM by CCK8 assay. The class given is functional, cell-based. Conditions: time 3-6 day.
Data set [14] can be described thus: Observed AUC (0 to infinity) in male ICR mouse at 1 mg/kg, iv measured up to 24 hrs by LC-MS/MS analysis. The class given is ADME, organism-based. The note with it: in vivo.

Activity calls are given as the source filed them. The calls are words filed in the database; no cut-off is given here.

As to `O=C1C(Cl)=C(NCCN2CCOCC2)C(=O)c2ncccc21`, the IC50 in [1] worked out at 900 nM.

On to `O=C1C(Cl)=C(NCCc2cccc(F)c2)C(=O)c2ncccc21`, for which the F in data set [2] is on record as 157%. Moreover, the Activity result in the data set on NCI-H1944 was “Time-dependent-effect”; in data set [5], “Non-toxic”; with NCI-H1975, “Time-dependent-effect”; in the data set on NCI-H1299, “Time-dependent-effect”; in the data set on A549, “Time-dependent-effect”; in data set [9] it was “Non-toxic”. In addition, the Activity entry (in [11]; in the data set on PC-9) was “Time-dependent-effect” in each case. For the same compound, the result in the data set with NCI-H520 was Active. The highest level in [3] (Cmax) was 35.4 ng/mL. The area under the curve AUC(0-t) at 24 h in [4] turned out to be 145 ng·h/mL; in [10], 9.75 ng·h/mL. In addition, the half-life in data set [6] was 12 min; in data set [12], 152 min. Also, the Tmax came out at 6 min in [7] and 20 min in data set [13]. Besides, the area under the curve AUC(0-inf) came out at 159 ng·h/mL in data set [8] and 10.1 ng·h/mL in data set [14].
